Reference: patent publication US20150141324A1 (priority 2011, published 2015)
Peptide text beside a SMILES is read from it. * marks the point of attachment. NH(4-amidinobenzyl) = N=C(N)c1ccc(CN*)cc1; Decanoyl = CCCCCCCCCC(=O)*; X2 = N=C(N)NC/C=C/CN*; CH2Cl = ClC*

Key:
furin = biological target: T1, furin (Homo sapiens, UniProt P09958); type: cell-based
T1 construct: endogenous in cells; host or cells: HEK293

[1] = test system: Escherichia coli O157:H7 Shiga toxin

T1 sequence (P09958 108-794): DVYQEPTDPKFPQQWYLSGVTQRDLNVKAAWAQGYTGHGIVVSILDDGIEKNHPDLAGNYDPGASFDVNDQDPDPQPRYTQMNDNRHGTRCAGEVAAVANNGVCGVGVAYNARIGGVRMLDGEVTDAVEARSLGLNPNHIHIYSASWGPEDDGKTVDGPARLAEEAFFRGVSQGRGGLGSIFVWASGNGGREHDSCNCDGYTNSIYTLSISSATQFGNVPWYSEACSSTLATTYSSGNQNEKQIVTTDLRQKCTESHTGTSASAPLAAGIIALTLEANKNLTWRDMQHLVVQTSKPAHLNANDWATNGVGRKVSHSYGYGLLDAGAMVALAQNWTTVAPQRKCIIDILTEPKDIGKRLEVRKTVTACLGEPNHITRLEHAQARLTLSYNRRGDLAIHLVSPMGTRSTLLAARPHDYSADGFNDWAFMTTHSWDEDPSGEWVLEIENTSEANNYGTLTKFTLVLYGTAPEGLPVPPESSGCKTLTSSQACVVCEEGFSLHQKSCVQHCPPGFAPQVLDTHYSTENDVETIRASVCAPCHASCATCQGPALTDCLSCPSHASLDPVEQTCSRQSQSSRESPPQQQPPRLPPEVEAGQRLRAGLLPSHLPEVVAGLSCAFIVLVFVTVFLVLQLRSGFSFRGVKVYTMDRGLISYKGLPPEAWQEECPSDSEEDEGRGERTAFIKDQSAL

Row | Compound | potency against furin in cell fusion inhibition, compared to RxxT control peptide (furin) | IC50 [1] [µM] | IC50 described in words [1]
1 | C[C@H](NC(=O)[C@H](CCCNC(=N)N)NC(=O)CCCCCCCN)C(=O)N[C@@H](CCCNC(=N)N)C(=O)N[C@@H](CCCNC(=N)N)C(=O)N[C@@H](CCCNC(=N)N)C(=O)N[C@@H](CCCCN)C(=O)N[C@@H](CCCCN)C(=O)NN(CCCNC(=N)N)CC(=O)N[C@H](C(N)=O)[C@@H](C)O [Aoc-RxxT[Azaβ3R]^P1] | increased potency | 16.7 | similar
2 | CCCCCCCCCC(=O)N[C@@H](CCCNC(=N)N)C(=O)N[C@H](C(=O)N[C@@H](CCCCN)C(=O)N[C@@H](CCCNC(=N)N)C(=O)CCl)[C@@H](C)O [DEC-RTKR-CMK, reference compound] (Decanoyl-RTKR-CH2Cl) | – | 11.5 | –
3 | CC(=O)N[C@@H](CCCNC(=N)N)C(=O)N[C@@H](C)C(=O)N[C@@H](CCCNC(=N)N)C(=O)N[C@@H](CCCNC(=N)N)C(=O)N[C@@H](CCCNC(=N)N)C(=O)N[C@@H](CCCCN)C(=O)N[C@@H](CCCCN)C(=O)N[C@@H](CCCNC(=N)N)C(=O)N[C@H](C(N)=O)[C@@H](C)O [RxxT, Ac-R-A-R-R-R-K-K-R-T-NH2, reference compound] | – | > 1000 | –
4 | CC(=O)NN(CCCNC(=N)N)CC(=O)N[C@@H](C)C(=O)N[C@@H](CCCNC(=N)N)C(=O)N[C@@H](CCCNC(=N)N)C(=O)N[C@@H](CCCNC(=N)N)C(=O)N[C@@H](CCCCN)C(=O)N[C@@H](CCCCN)C(=O)NN(CCCNC(=N)N)CC(=O)N[C@H](C(N)=O)[C@@H](C)O [RxxT[Azaβ3R]^P1-P8] | increased potency | 20.8 | similar
5 | CC(=O)N[C@@H](CCCNC(=N)N)C(=O)N[C@@H](C)C(=O)N[C@@H](CCCNC(=N)N)C(=O)N[C@@H](CCCNC(=N)N)C(=O)N[C@@H](CCCNC(=N)N)C(=O)N[C@@H](CCCCN)C(=O)N[C@@H](CCCCN)C(=O)NN(CCCNC(=N)N)CC(=O)N[C@H](C(N)=O)[C@@H](C)O [RxxT[Azaβ3R]^P1] | increased potency | 314 | low IC50 values
6 | CC(=O)N[C@@H](CCCNC(=N)N)C(=O)N[C@@H](C)C(=O)N[C@@H](CCCNC(=N)N)C(=O)N[C@@H](CCCNC(=N)N)C(=O)N[C@@H](CCCNC(=N)N)C(=O)N[C@@H](CCCCN)C(=O)N[C@@H](CCCCN)C(=O)NCc1ccc(C(=N)N)cc1 [Rxx[AMBA]^P1] (Ac-RARRRKK-{NH(4-amidinobenzyl)}) | – | > 1000 | –
7 | CC(=O)N[C@@H](CCCNC(=N)N)C(=O)N[C@@H](C)C(=O)N[C@@H](CCCNC(=N)N)C(=O)N[C@@H](CCCNC(=N)N)C(=O)N[C@@H](CCCNC(=N)N)C(=O)N[C@@H](CCCCN)C(=O)N[C@@H](CCCCN)C(=O)NC/C=C/CNC(=N)N [Rxx[ΔAR-CO2]^P1] (Ac-RARRRKK-X2; N-terminus and C-terminus assumed) | increased potency | 71 | low IC50 values
